pIC50: −log10 of the molar value. Values after ≈ are worked out from the molar mass of the structure shown.
What was measured:
[1] = target: DNA gyrase (Escherichia coli, UniProt P0AES4+P0AES6); test: Inhibition of Escherichia coli DNA gyrase by supercoiling plate assay; assay type: protein-complex assay
[2] = target: DNA gyrase (Staphylococcus aureus, UniProt P0A0K8+P20831); test: Inhibition of Staphylococcus aureus DNA gyrase by supercoiling plate assay; assay type: protein-complex assay
[3] = Inhibition of Escherichia coli DNA topoisomerase-IV relaxation plate assay
[4] = target: DNA topoisomerase 2-alpha (Homo sapiens, UniProt P11388); test: Inhibition of human DNA topoisomerase 2-alpha using linear pBR322 as substrate assessed as conversion of NADH to NAD+ by measuring residual activity at 100 uM preincubated for 10 to 15 mins in presence of pyruvate kinase/lactate dehydrogenase mix followed by ATP addition and measured after 30 mins by ATPase assay relative to control; settings: time 40-55 min
[5] = tested on: Staphylococcus aureus; test: Antibacterial activity against Staphylococcus aureus ATCC 29213 assessed as inhibition of bacterial growth by broth microdilution method; assay type: functional
[6] = tested on: Staphylococcus aureus; test: Antibacterial against methicillin resistant Staphylococcus aureus ATCC 43300 assessed as inhibition of bacterial growth by broth microdilution method; assay type: functional; settings: time 24 hrs
[7] = tested on: Staphylococcus aureus; test: Antibacterial against vancomycin-intermediate Staphylococcus aureus ATCC 700699 assessed as inhibition of bacterial growth by broth dilution method; assay type: functional
[8] = tested on: Enterococcus faecalis; test: Antibacterial activity against Enterococcus faecalis ATCC 29212 assessed as inhibition of bacterial growth by broth microdilution method; assay type: functional
[9] = tested on: Enterococcus faecium; test: Antibacterial activity against vancomycin-resistant Enterococcus faecium ATCC 700221 assessed as inhibition of bacterial growth by broth microdilution method; assay type: functional
[10] = tested on: Escherichia coli; test: Antibacterial activity against Escherichia coli ATCC 25922 assessed as inhibition of bacterial growth by broth microdilution method; assay type: functional
[11] = tested on: Enterobacter cloacae; test: Antibacterial activity against Enterobacter cloacae subsp. cloacae ATCC 13047 assessed as inhibition of bacterial growth by broth microdilution method; assay type: functional
[12] = tested on: Pseudomonas aeruginosa; test: Antibacterial activity against Pseudomonas aeruginosa ATCC 27853 assessed as inhibition of bacterial growth by broth microdilution metho; assay type: functional
[13] = tested on: Klebsiella pneumoniae; test: Antibacterial activity against Klebsiella pneumoniae ATCC 10031 assessed as inhibition of bacterial growth by broth microdilution method; assay type: functional
[14] = tested on: Acinetobacter baumannii; test: Antibacterial activity against Acinetobacter baumannii ATCC 17978 assessed as inhibition of bacterial growth by broth microdilution method; assay type: functional
[15] = tested on: Escherichia coli; test: Inhibition of Escherichia coli DNA topoisomerase-IV assessed as residual activity at 10 uM by relaxation plate assay relative to control
[16] = tested on: MCF7; test: Cytotoxicity against human MCF7 cells assessed as cell viability at 50 uM incubated for 72 hrs by CellTiter 96 aqueous one solution reagent based MTS assay relative to control; assay type: functional; settings: read-out: Activity
[17] = Metabolic stability in human liver microsomes assessed as half life at 1 uM preincubated for 10 mins followed by NADPH addition and measured after 5 to 60 mins by LC-MS/MS analysis; assay type: ADME, Microsome; settings: time 15-70 min
[18] = Metabolic stability in human liver microsomes assessed as intrinsic clearance at 1 uM preincubated for 10 mins followed by NADPH addition and measured after 5 to 60 mins by LC-MS/MS analysis; assay type: ADME, Microsome; settings: time 15-70 min, read-out: CLH
[19] = Metabolic stability in mouse liver microsomes assessed as half life at 1 uM preincubated for 10 mins followed by NADPH addition and measured after 5 to 60 mins by LC-MS/MS analysis; assay type: ADME, Microsome; settings: time 15-70 min
[20] = Metabolic stability in mouse liver microsomes assessed as intrinsic clearance at 1 uM preincubated for 10 mins followed by NADPH addition and measured after 5 to 60 mins by LC-MS/MS analysis; assay type: ADME, Microsome; settings: time 15-70 min, read-out: CLH
[21] = tested on: Escherichia coli; test: Inhibition of Escherichia coli DNA topoisomerase-IV assessed as residual activity at 1 uM by relaxation plate assay relative to control

DNA topoisomerase 2-alpha, sequence (P11388 whole entry): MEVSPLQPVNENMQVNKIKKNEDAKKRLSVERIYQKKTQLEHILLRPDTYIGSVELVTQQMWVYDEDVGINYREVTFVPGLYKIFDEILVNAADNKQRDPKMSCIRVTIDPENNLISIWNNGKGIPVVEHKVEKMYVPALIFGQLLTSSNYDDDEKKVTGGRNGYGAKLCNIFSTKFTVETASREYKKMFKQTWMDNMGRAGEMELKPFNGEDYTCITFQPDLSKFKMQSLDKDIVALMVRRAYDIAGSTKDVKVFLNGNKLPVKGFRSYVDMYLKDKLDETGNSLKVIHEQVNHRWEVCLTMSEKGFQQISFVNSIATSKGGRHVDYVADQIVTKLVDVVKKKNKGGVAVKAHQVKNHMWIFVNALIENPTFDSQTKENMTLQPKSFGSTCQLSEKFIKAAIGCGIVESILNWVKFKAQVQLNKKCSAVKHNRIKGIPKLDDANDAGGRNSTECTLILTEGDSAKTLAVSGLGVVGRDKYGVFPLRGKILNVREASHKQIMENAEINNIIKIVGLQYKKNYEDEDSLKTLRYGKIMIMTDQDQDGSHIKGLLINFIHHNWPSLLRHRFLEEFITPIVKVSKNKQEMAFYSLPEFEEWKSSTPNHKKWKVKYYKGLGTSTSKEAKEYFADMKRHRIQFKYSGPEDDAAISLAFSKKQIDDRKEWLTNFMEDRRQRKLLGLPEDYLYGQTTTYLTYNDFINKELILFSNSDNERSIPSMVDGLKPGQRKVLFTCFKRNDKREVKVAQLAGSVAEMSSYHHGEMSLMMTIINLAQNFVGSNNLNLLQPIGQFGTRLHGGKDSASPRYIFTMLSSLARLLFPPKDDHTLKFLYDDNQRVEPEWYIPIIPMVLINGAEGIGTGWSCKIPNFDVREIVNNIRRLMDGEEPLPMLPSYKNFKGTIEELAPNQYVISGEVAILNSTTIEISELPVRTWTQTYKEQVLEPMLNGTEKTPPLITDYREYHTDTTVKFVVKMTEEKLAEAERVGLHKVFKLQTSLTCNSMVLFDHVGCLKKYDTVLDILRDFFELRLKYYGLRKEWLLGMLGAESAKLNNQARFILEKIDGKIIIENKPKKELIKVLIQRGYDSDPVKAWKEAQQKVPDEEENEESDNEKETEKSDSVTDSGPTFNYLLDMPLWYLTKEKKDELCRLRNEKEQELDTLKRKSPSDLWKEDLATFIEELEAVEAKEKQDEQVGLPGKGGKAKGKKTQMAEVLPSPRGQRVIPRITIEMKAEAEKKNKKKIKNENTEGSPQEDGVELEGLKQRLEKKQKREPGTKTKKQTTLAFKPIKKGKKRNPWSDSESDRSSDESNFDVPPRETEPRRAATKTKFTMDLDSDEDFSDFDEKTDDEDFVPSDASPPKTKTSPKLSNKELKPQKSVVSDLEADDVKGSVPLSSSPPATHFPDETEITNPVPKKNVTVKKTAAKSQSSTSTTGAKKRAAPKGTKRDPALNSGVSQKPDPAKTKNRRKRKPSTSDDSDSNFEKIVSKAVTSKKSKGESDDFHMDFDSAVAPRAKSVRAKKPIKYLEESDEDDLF
DNA gyrase (Staphylococcus aureus, UniProt P0A0K8+P20831), sequence (P0A0K8 whole entry): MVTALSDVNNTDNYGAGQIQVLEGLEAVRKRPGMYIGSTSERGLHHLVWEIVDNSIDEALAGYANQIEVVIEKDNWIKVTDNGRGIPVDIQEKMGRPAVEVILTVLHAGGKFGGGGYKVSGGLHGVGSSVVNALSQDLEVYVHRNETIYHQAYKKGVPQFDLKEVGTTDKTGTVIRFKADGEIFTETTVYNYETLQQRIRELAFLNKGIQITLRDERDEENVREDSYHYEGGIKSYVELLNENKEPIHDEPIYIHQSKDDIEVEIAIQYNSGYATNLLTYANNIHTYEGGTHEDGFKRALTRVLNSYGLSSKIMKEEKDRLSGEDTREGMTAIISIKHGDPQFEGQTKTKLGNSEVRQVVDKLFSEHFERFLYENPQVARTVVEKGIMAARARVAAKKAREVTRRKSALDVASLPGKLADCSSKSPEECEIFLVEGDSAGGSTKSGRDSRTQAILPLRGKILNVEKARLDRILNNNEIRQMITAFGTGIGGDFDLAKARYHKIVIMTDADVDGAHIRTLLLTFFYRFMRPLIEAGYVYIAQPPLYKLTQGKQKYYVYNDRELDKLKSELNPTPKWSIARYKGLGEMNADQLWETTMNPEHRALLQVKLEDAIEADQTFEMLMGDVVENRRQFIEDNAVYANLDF
DNA gyrase (Staphylococcus aureus, UniProt P0A0K8+P20831), sequence (P20831 whole entry): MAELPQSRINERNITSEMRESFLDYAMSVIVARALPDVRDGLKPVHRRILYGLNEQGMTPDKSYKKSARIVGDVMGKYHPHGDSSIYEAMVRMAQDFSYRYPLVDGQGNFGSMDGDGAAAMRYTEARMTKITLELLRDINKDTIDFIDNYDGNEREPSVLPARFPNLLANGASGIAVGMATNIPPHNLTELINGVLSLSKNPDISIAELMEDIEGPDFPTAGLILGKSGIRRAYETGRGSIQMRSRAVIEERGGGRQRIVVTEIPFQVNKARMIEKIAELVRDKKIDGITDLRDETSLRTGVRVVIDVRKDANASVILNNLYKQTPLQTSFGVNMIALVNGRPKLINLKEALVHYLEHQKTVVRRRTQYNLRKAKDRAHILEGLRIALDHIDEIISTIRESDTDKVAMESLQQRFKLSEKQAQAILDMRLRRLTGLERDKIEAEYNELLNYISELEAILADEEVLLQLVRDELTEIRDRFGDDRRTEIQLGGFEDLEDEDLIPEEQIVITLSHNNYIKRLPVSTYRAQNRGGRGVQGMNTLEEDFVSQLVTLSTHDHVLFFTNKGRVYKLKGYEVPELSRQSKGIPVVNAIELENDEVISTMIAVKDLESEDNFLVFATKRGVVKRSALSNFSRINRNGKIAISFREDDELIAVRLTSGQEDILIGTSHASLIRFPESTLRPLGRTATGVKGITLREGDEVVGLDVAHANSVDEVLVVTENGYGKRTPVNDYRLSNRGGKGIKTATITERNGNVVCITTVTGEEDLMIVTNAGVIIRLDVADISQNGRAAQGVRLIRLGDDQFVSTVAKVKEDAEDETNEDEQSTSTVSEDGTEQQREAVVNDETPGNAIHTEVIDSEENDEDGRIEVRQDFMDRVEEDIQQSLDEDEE

Q: What does the source list for `Cc1[nH]c(C(=O)Nc2ccc(-c3noc(=O)[nH]3)cc2NC2CCNCC2)c(Cl)c1Cl.Cl`?
A: pIC50 [1]: 8.02; pIC50 [2]: 6.60; pIC50 [3]: 5.93; Activity [4]: 101%; MIC [5]: > 64 µg/mL; MIC [6]: > 64 µg/mL; MIC [7]: > 64 µg/mL; MIC [8]: > 64 µg/mL; MIC [9]: > 64 µg/mL; MIC [10]: > 64 µg/mL; MIC [11]: > 64 µg/mL; MIC [12]: > 64 µg/mL; MIC [13]: > 64 µg/mL; MIC [14]: > 64 µg/mL

Q: Which results are given for `Cc1[nH]c(C(=O)Nc2ccc(-c3noc(=O)[nH]3)cc2N2CCNCC2)c(Cl)c1Cl.Cl`?
A: pIC50 [1]: 8.22; pIC50 [3]: 5.50; Activity [4]: 101%; MIC [5]: > 64 µg/mL; MIC [6]: > 64 µg/mL; MIC [7]: > 64 µg/mL; MIC [8]: > 64 µg/mL; MIC [9]: > 64 µg/mL; MIC [10]: > 64 µg/mL; MIC [11]: > 64 µg/mL; MIC [12]: > 64 µg/mL; MIC [13]: > 64 µg/mL; MIC [14]: > 64 µg/mL

Q: With `Cc1[nH]c(C(=O)Nc2ccc(-n3nn[nH]c3=O)cc2N2CCC(N)CC2)c(Cl)c1Cl.Cl` as the compound, how does the pIC50 [1] read?
A: 8.40

Q: What about the pIC50 [2] of the same compound?
A: 6.67

Q: What about the pIC50 [3] of the same compound?
A: 4.94

Q: What about the Activity [4] of the same compound?
A: 103%

Q: What about the MIC [5] of the same compound?
A: > 32 µg/mL

Q: What about the MIC [6] of the same compound?
A: > 32 µg/mL

Q: What about the MIC [7] of the same compound?
A: > 32 µg/mL

Q: What about the MIC [8] of the same compound?
A: > 32 µg/mL

Q: What about the MIC [9] of the same compound?
A: > 32 µg/mL

Q: And the MIC [10]?
A: > 32 µg/mL

Q: What about the MIC [11] of the same compound?
A: > 32 µg/mL

Q: And the MIC [12]?
A: > 32 µg/mL

Q: And the MIC [13]?
A: > 32 µg/mL

Q: What about the MIC [14] of the same compound?
A: > 32 µg/mL

Q: What does the source list for `Cc1[nH]c(C(=O)Nc2ccc(-n3nn[nH]c3=O)cc2N2Cc3ccccc3C2)c(Cl)c1Cl`?
A: pIC50 [1]: 6.95; Activity [15]: 105%; Activity [4]: 97%; MIC [5]: 16 µg/mL (≈ 34 µM); MIC [6]: > 64 µg/mL; MIC [7]: > 64 µg/mL; MIC [8]: 0.25 µg/mL (≈ 0.532 µM); MIC [9]: 0.5 µg/mL (≈ 1.06 µM); MIC [10]: > 64 µg/mL; MIC [11]: > 64 µg/mL; MIC [12]: > 64 µg/mL; MIC [13]: > 64 µg/mL; MIC [14]: > 64 µg/mL; viability at 50 µM [16]: 89%; half-life at 1 µM [17]: 1.33 h; microsomal CLint at 1 µM [18]: 17.3 µL/min/mg; half-life at 1 µM [19]: > 2.42 h; microsomal CLint at 1 µM [20]: < 9.6 µL/min/mg

Q: With `Cc1[nH]c(C(=O)Nc2ccc(-c3nnn[nH]3)cc2N2CCCC(CN)C2)c(Cl)c1Cl.Cl` (stereo not given) as the compound, how does the pIC50 [1] read?
A: 8.67

Q: And the pIC50 [2]?
A: 7.46

Q: And the pIC50 [3]?
A: 7.22

Q: And the Activity [4]?
A: 91%

Q: What about the MIC [5] of the same compound?
A: 16 µg/mL

Q: And the MIC [6]?
A: > 64 µg/mL

Q: What about the MIC [7] of the same compound?
A: > 64 µg/mL

Q: What about the MIC [8] of the same compound?
A: 8 µg/mL

Q: What about the MIC [9] of the same compound?
A: 16 µg/mL

Q: And the MIC [10]?
A: > 64 µg/mL

Q: What about the MIC [11] of the same compound?
A: > 64 µg/mL

Q: What about the MIC [12] of the same compound?
A: > 64 µg/mL

Q: What about the MIC [13] of the same compound?
A: 64 µg/mL

Q: What about the MIC [14] of the same compound?
A: > 64 µg/mL

Q: And the viability at 50 µM [16]?
A: 117%

Q: Which results are given for `Cc1[nH]c(C(=O)Nc2ccc(-c3noc(=O)[nH]3)cc2N2CCCC2)c(Cl)c1Cl`?
A: pIC50 [1]: 7.90; pIC50 [3]: 5.62; Activity [4]: 99%; MIC [5]: > 64 µg/mL; MIC [6]: 0.5 µg/mL (≈ 1.18 µM); MIC [7]: < 0.031 µg/mL; MIC [8]: < 0.031 µg/mL; MIC [9]: 0.063 µg/mL (≈ 0.149 µM); MIC [10]: > 64 µg/mL; MIC [11]: > 64 µg/mL; MIC [12]: > 64 µg/mL; MIC [13]: > 64 µg/mL; MIC [14]: > 64 µg/mL; viability at 50 µM [16]: 119%; half-life at 1 µM [17]: 1.31 h; microsomal CLint at 1 µM [18]: 17.6 µL/min/mg; half-life at 1 µM [19]: 2.1 h; microsomal CLint at 1 µM [20]: 11 µL/min/mg

Q: What does the source list for `Cc1[nH]c(C(=O)Nc2ccc(-c3noc(=O)[nH]3)cc2N2CCN(C(=O)OC(C)(C)C)CC2)c(Cl)c1Cl`?
A: pIC50 [1]: 7.86; Activity [21]: 71%; Activity [4]: 95%; MIC [5]: > 64 µg/mL; MIC [6]: > 64 µg/mL; MIC [7]: < 0.031 µg/mL; MIC [8]: < 0.031 µg/mL; MIC [9]: 0.25 µg/mL (≈ 0.465 µM); MIC [10]: > 64 µg/mL; MIC [11]: > 64 µg/mL; MIC [12]: > 64 µg/mL; MIC [13]: > 64 µg/mL; MIC [14]: > 64 µg/mL; viability at 50 µM [16]: 78%; microsomal CLint at 1 µM [18]: 18.2 µL/min/mg; half-life at 1 µM [19]: > 2.42 h; microsomal CLint at 1 µM [20]: < 9.6 µL/min/mg

Q: With `Cc1[nH]c(C(=O)Nc2ccc(-n3nn[nH]c3=O)cc2N2CC[C@H](NC(=O)OC(C)(C)C)C2)c(Cl)c1Cl` as the compound, how does the pIC50 [1] read?
A: 6.67

Q: What about the Activity [15] of the same compound?
A: 72%

Q: And the Activity [4]?
A: 95%

Q: With `Cc1[nH]c(C(=O)Nc2ccc(C(=O)NS(C)(=O)=O)cc2N2CCOCC2)c(Cl)c1Cl` as the compound, how does the pIC50 [1] read?
A: 6.61

Q: And the Activity [15]?
A: 37%

Q: And the Activity [4]?
A: 94%

Q: With `Cc1[nH]c(C(=O)Nc2ccc(-c3noc(=O)[nH]3)cc2N2CCC(NC(=O)OC(C)(C)C)CC2)c(Cl)c1Cl` as the compound, how does the pIC50 [1] read?
A: 8.17

Q: What about the Activity [21] of the same compound?
A: 62%

Q: What about the Activity [4] of the same compound?
A: 30%

Q: What about the MIC [5] of the same compound?
A: > 64 µg/mL

Q: And the MIC [6]?
A: 0.5 µg/mL (≈ 0.907 µM)

Q: And the MIC [7]?
A: 0.063 µg/mL (≈ 0.114 µM)

Q: What about the MIC [8] of the same compound?
A: < 0.031 µg/mL

Q: And the MIC [9]?
A: 0.5 µg/mL (≈ 0.907 µM)

Q: What about the MIC [10] of the same compound?
A: > 64 µg/mL

Q: And the MIC [11]?
A: > 64 µg/mL

Q: What about the MIC [12] of the same compound?
A: > 64 µg/mL

Q: What about the MIC [13] of the same compound?
A: > 64 µg/mL

Q: And the MIC [14]?
A: > 64 µg/mL

Q: What about the viability at 50 µM [16] of the same compound?
A: 44%

Q: What about the half-life at 1 µM [17] of the same compound?
A: 1.27 h
